We go through nine compounds from patent US6121285A, “Substituted aminocycloalkylpyrrolidine derivatives and cis-substituted aminocycloalkylpyrrolidine derivatives” (Daiichi Pharmaceutical Co., Ltd., priority 1995, dated 2000).

In brackets after ≈: the same amount, converted by molar mass. Read-outs that look alike come from different tables or passages of the source. Where only a bound is given, the exact number is not on record here.

Data set [1] deals with Slc:ddy five week male mice. In words: Acute toxicity, intravenous administration to mice. Conditions: for acute toxicity result in words: same test as cis/trans (cis: 0/5 deaths); for Number of death: hydrochloride in distilled water. In kind it is in vivo. As for the experimental part:
A solution of 5-amino-7-[4-(R)-(1-aminocyclopropyl)-3-(S)-fluoro-1-pyrrolidinyl]-6-fluoro-1-[2-(S)-fluoro-1-(R)-cyclopropyl]-1,4-dihydro-8-methyl-4-oxoquinoline-3-carboxylic acid (abbreviated as cis) hydrochloride of Example 15 or 5-amino-7-[4-(R)-(1-aminocyclopropyl)-3-(R)-fluoro-1-pyrrolidinyl]-6-fluoro-1-[2-(S)-fluoro-1-(R)-cyclopropyl]-1,4-dihydro-8-methyl-4-oxoquinoline-3-carboxylic acid (abbreviated as trans) hydrochloride in distilled water for injection was administered intravenously to Slc:ddy five week male mice (five mice per group) and the symptoms are observed.

For another data set, the system named is E. coli, NIHJ. Nature of the data set: Antimicrobial activity (MIC), standard method of the Japan Society of Chemotherapy. In kind it is cell-based. The protocol: (§1) Examples of the first and second aspects of the present invention are given below by way of illustration and not by way of limitation. In-this regard, the antibacterial and antimicrobial activities of the compounds of interest were measured in accordance with the standard method specified by the Japan Society of Chemotherapy. The results are shown in Tables 1 to 5 as a minimum inhibitory concentration (MIC,μg/ml). Unless otherwise indicated, all percents (%) are by weight.

For another data set, the system named is Pr. mirabilis, IFO-3849. The description is as above. It is filed as cell-based. As for the experimental part: as §1
Another data set has as its system Pr. vulgaris, 08601. Described as above. In kind it is cell-based. Conditions: for MIC: Proteus vulgaris, read-out: minimum inhibitory concentration (MIC). As for the experimental part:
as §1

Another data set has as its system Ps. aeruginosa, 32104. Described as above. In kind it is cell-based. Particulars: for minimum inhibitory concentration (MIC): Ps. aeruginosa. As for the experimental part:
as §1

Another data set deals with Ps. aeruginosa, 32121. Described as above. In kind it is cell-based. As for the experimental part: as §1
The test system of data set [2] is Ps. maltophilia, IID-1275. The description is as above. In kind it is cell-based. The protocol:
as §1

A further data set concerns S. aureus, 209P. Described as above. In kind it is cell-based. The protocol: as §1
Another data set concerns S. aureus, 870307. The data set is described as above. It is filed as cell-based. As for the experimental part: as §1
The next data set concerns S. epidermidis, 56500. The data set is described as above. It is filed as cell-based. The protocol: as §1
The next data set concerns S. flexneli, 2A 5503. The description is as above. It is filed as cell-based. Particulars: for minimum inhibitory concentration (MIC): S. flexneli, 2A 5503. As for the experimental part: as §1
In a further data set the test system is Ser. marcescens, 10100. Described as above. It is filed as cell-based. The protocol:
as §1

Data set [3] concerns Str. faecalis, ATCC-19433. The data set is described as above. In kind it is cell-based. As for the experimental part: as §1
Another data set deals with Str. pyogenes, G-36. Described as above. In kind it is cell-based. The protocol: as §1
Setting [4] is: Staphylococcus aureus, read-out: minimum inhibitory concentration (MIC).
Setting [5] is: Staphylococcus epidermidis, S. epidermidis, 56500, read-out: minimum inhibitory concentration (MIC).
[6] abbreviates: 150 mg/kg, * = test stopped when second mouse died.

For the compound `Cc1c(N2C[C@@H](CO)[C@@H](C3(N)CC3)C2)c(F)c(N)c2c(=O)c(C(=O)O)cn(C3CC3)c12` (relative stereo) [Example 14, 5-Amino-7-[cis-4-(1-aminocyclopropyl)-3-hydroxymethyl-1-pyrrolidinyl]-1-cyclopropyl-6-fluoro-1,4-dihydro-8-methyl-4-oxoquinoline-3-carboxylic acid], in data set [1] (150 mg/kg), the “acute toxicity result in words” value was “same result”.

In the case of `Cc1c(N2C[C@@H](F)[C@@H](C3(N)CCC3)C2)c(F)c(N)c2c(=O)c(C(=O)O)cn([C@@H]3C[C@@H]3F)c12` (single isomer, unassigned; isomer b) [Example 13], the “minimum inhibitory concentration (MIC)” value with E. coli, NIHJ was ≤ 0.003 µg/mL; in the data set on Pr. mirabilis, IFO-3849, 0.05 µg/mL (≈ 0.111 µM); in the data set on Pr. vulgaris, 08601 it was 0.025 µg/mL (≈ 0.0555 µM); in the data set on Ps. aeruginosa, 32104, 0.20 µg/mL (≈ 0.444 µM); in the data set with Ps. aeruginosa, 32121 it was 0.10 µg/mL (≈ 0.222 µM); in data set [2] it was 0.20 µg/mL (≈ 0.444 µM). Moreover, the “minimum inhibitory concentration (MIC)” value was ≤ 0.003 µg/mL in the data set with S. aureus, 209P; 0.05 µg/mL (≈ 0.111 µM) with S. aureus, 870307; 0.006 µg/mL (≈ 0.0133 µM) in the data set with S. epidermidis, 56500 (S. epidermidis, 56500); 0.006 µg/mL (≈ 0.0133 µM) with S. flexneli, 2A 5503; 0.20 µg/mL (≈ 0.444 µM) in the data set on Ser. marcescens, 10100; 0.025 µg/mL (≈ 0.0555 µM) in data set [3]. The “minimum inhibitory concentration (MIC)” value in the data set with Str. pyogenes, G-36 was 0.006 µg/mL (≈ 0.0133 µM). The “acute toxicity result in words” value in data set [1] (150 mg/kg) was “same result”.

Consider `Cc1c(N2C[C@H](C)[C@@H](C3(N)CC3)C2)c(F)c(N)c2c(=O)c(C(=O)O)cn([C@@H]3C[C@@H]3F)c12` [Example 3, 5-Amino-7-[(3R,4R)-3-(1-aminocyclopropyl)-4-methyl-1-pyrrolidinyl]-6-fluoro-1-[(1R,2S)-2-fluorocyclopropyl]-1,4-dihydro-8-methyl-4-oxoquinoline-3-carboxylic acid], for which the MIC in the data set with E. coli, NIHJ (Escherichia coli, read-out: minimum inhibitory concentration (MIC)) is ≤ 0.003 µg/mL; in the data set on Pr. mirabilis, IFO-3849 (Proteus mirabilis, IFO3849, read-out: minimum inhibitory concentration (MIC)), 0.05 µg/mL (≈ 0.116 µM); with Pr. vulgaris, 08601, 0.025 µg/mL (≈ 0.0578 µM); in the data set on Ps. aeruginosa, 32104 (Pseudomonas aeruginosa, 32104, Ps. aeruginosa, read-out: minimum inhibitory concentration (MIC)) it was 0.2 µg/mL (≈ 0.462 µM); in the data set on Ps. aeruginosa, 32121 (Pseudomonas aeruginosa, read-out: minimum inhibitory concentration (MIC)), 0.1 µg/mL (≈ 0.231 µM); in [2] (Stenotrophomonas maltophilia, IID1275, read-out: minimum inhibitory concentration (MIC)) it was 0.1 µg/mL (≈ 0.231 µM). Further, the MIC is ≤ 0.003 µg/mL with S. aureus, 209P (setting [4]); 0.025 µg/mL (≈ 0.0578 µM) in the data set with S. aureus, 870307 (setting [4]); ≤ 0.003 µg/mL in the data set with S. epidermidis, 56500 (setting [5]); ≤ 0.003 µg/mL in the data set on S. flexneli, 2A 5503 (read-out: minimum inhibitory concentration (MIC), S. flexneli, 2A 5503); 0.1 µg/mL (≈ 0.231 µM) with Ser. marcescens, 10100 (Serratia marcescens, read-out: minimum inhibitory concentration (MIC)); 0.025 µg/mL (≈ 0.0578 µM) in data set [3] (Enterococcus faecalis, ATCC19433, read-out: minimum inhibitory concentration (MIC)). Besides, the MIC in the data set on Str. pyogenes, G-36 (Streptococcus pyogenes, G36, read-out: minimum inhibitory concentration (MIC)) is ≤ 0.003 µg/mL.

On to `Cc1c(N2C[C@H](F)[C@@H](C3(N)CC3)C2)c(F)c(N)c2c(=O)c(C(=O)O)cn([C@@H]3C[C@@H]3F)c12.Cl` [Example 5, 5-Amino-7-[4-(R)-(1-aminocyclopropyl)-3-(R)-fluoro-1-pyrrolidinyl]-6-fluoro-1-[2-(S)-fluoro-1-(R)-cyclopropyl]-1,4-dihydro-8-methyl-4-oxoquinoline-3-carboxylic acid hydrochloride], for which the MIC in the data set with S. epidermidis, 56500 (setting [5]) was ≤ 0.003 µg/mL. For the same compound, the Number of death is 0/5 in [1] (50 mg/kg); 2/2 in data set [1] (100 mg/kg, * = test stopped when second mouse died); 2/2 in [1] (setting [6]).

On to `COc1c(N2C[C@@H](F)[C@@H](C3(N)CC3)C2)c(F)cc2c(=O)c(C(=O)O)cn([C@@H]3C[C@@H]3F)c12` [Example 12, 7-[4-(R)-(1-Aminocyclopropyl)-3-(S)-fluoro-1-pyrrolidinyl]-6-fluoro-1-[2-(S)-fluoro-1-(R)-cyclopropyl]-1,4-dihydro-8-methoxy-4-oxoquinoline-3-carboxylic acid], for which the MIC with Pr. vulgaris, 08601 came to 0.006 µg/mL (≈ 0.0137 µM). Further, the “minimum inhibitory concentration (MIC)” value was 0.20 µg/mL (≈ 0.457 µM) with Ps. aeruginosa, 32104 (listed as 18); 0.013 µg/mL (≈ 0.0297 µM) in the data set on S. flexneli, 2A 5503; 0.006 µg/mL (≈ 0.0137 µM) with S. flexneli, 2A 5503 (listed as 18). Besides, the “acute toxicity result in words” value in data set [1] (150 mg/kg) is listed as “same result”.

Take `Cc1c(N2C[C@@H](F)[C@@H](C3(N)CC3)C2)c(F)c(N)c2c(=O)c(C(=O)O)cn([C@@H]3C[C@@H]3F)c12.Cl` [Example 15, 5-Amino-7-[4-(R)-(1-aminocyclopropyl)-3-(S)-fluoro-1-pyrrolidinyl]-6-fluoro-1-[2-(S)-fluoro-1-(R)-cyclopropyl]-1,4-dihydro-8-methyl-4-oxoquinoline-3-carboxylic acid hydrochloride]: the Number of death in [1] (setting [6]) is 0/5.

`COc1c(N2C[C@@H](F)[C@@H](C3(N)CC3)C2)c(F)c(N)c2c(=O)c(C(=O)O)cn([C@@H]3C[C@@H]3F)c12` [Example 16, 5-Amino-7-[4-(R)-(1-aminocyclopropyl)-3-(S)-fluoro-1-pyrrolidinyl]-6-fluoro-1-[2-(S)-fluoro-1-(R)-cyclopropyl]-1,4-dihydro-8-methoxy-4-oxoquinoline-3-carboxylic acid]: in [1] (150 mg/kg), the “acute toxicity result in words” value is recorded as “same result”.

With `C[C@H]1COc2c(N3C[C@@H](F)[C@@H](C4(N)CC4)C3)c(F)cc3c(=O)c(C(=O)O)cn1c23` [Example 17, 10-[4-(R)-(1-Aminocyclopropyl)-3-(S)-fluoro-1-pyrrolidinyl]-9-fluoro-2,3-dihydro-3-(S)-methyl-7-oxo-7H-pyrido[1,2,3-de][1,4]benzoxazine-6-carboxylic acid], in data set [1] (150 mg/kg), the “acute toxicity result in words” value was “same result”.

For `C[C@H]1COc2c(N3C[C@@H](F)[C@@H](C4(N)CC4)C3)c(F)c(N)c3c(=O)c(C(=O)O)cn1c23` [Example 21, 8-Amino-10-[4-(R)-(1-aminocyclopropyl)-3-(S)-fluoro-1-pyrrolidinyl]-9-fluoro-2,3-dihydro-3-(S)-methyl-7-oxo-7H-pyrido[1,2,3-de][1,4]benzoxazine-6-carboxylic acid], the MIC in the data set with S. epidermidis, 56500 (Staphylococcus epidermidis, 56500, read-out: minimum inhibitory concentration (MIC)) was determined as 0.013 µg/mL (≈ 0.0309 µM). Also, the “acute toxicity result in words” value in data set [1] (150 mg/kg) is “same result”.
